How the values were obtained:
Basic coloration test = format: physicochemical; settings: with water and potassium hydroxide, heat treatment at 90° C. for one hour, cooled to room temperature; spectral colorimeter
Text: The product 1, 3-butylene glycol in the present embodiment has an advantage of not easily coloring under a basic condition. Coloration under a basic condition can be evaluated by a method described in examples to be described below (basic coloration test). The color saturation (b*) of the CIE color space (JIS Z 8729) when the product 1, 3-butylene glycol of the present embodiment has been evaluated by the method is not particularly limited; however, for example, the average value of three times of measurement is preferably 4.0 or less, more preferably 3.8 or less and particularly preferably 3.5 or less.
The product 1, 3-butylene glycols obtained in Examples 1 to 3 and Comparative Example 1 were evaluated for coloration under a basic condition according to the following method.
13 g of water and 2 g of potassium hydroxide were added to a 100 mL heat-resistant medium bottle and mixed together, and 6 g of the product 1, 3-butylene glycol, which was a subject, was further added thereto. Next, the heat-resistant medium bottle was immersed in a water bath, and a heat treatment was performed at 90° C. for one hour. After the solution that had been subjected to the heat treatment was cooled to room temperature, the color saturation (b*) of the solution was measured with a spectral colorimeter SE2000 manufactured by Nippon Denshoku Industries Co., Ltd. and regarded as a grade.

[1] = system: cysteine-containing peptide for DPRA; assay: Skin sensitization test (direct peptide reactivity assay, DPRA); settings: HPLC after 72±2 hours, relative value with result of Comparative Example 1 regarded as 100
Text: The product 1, 3-butylene glycol in the present embodiment causes less skin sensitization. Here, the skin sensitization refers to the occurrence of an allergic reaction after the product 1, 3-butylene glycol comes into contact with the skin. In the evaluation of skin sensitization, it has been normal to use experimental animals, but the direct peptide reactivity assay (DPRA), which is an in Chemico test, was adopted as an alternative test in OECD guideline TG442C in 2015 from the viewpoint of animal welfare, and, in the present embodiment as well, the skin sensitization is evaluated by a test in which DPRA is used. In more detail, the skin sensitization is evaluated according to a method described in examples to be described below.
The product 1, 3-butylene glycols obtained in Examples 1 to 3 and Comparative Example 1 were evaluated for skin sensitization according to the following method.
15 mg of cysteine-containing peptide for DPRA manufactured by Scrum Inc. and 30 mL of a 0.05 M phosphate buffer were mixed together, thereby preparing a 0.05 M phosphate buffer solution containing 0.667 mM of the peptide (hereinafter, peptide solution). After one hour elapsed from the preparation of the peptide solution, 750 μL of the peptide solution and 250 μL of acetonitrile were put into each of three brown sample bottles for HPLC, thereby preparing three reference solutions. After two hours elapsed from the preparation of the reference solutions, 750 μL of the peptide solution, 200 μL of acetonitrile and 50 μL of 1, 3-butylene glycol were put into a separate brown sample bottle for HPLC, thereby preparing a specimen solution (specimen solution 1). Furthermore, after four hours elapsed and six hours elapsed from the preparation of the reference solutions, specimen solutions were prepared by the same operation (specimen solution 2 and specimen solution 3). Each of the three reference solutions and the specimen solutions (specimen solution 1, specimen solution 2 and specimen solution 3) was measured by an HPLC analysis after 72±2 hours elapsed from the preparation of each solution, and the three-time average value of the peak heights of peptide in each of the reference solutions and the specimen solutions was calculated. A peptide reduction percentage was calculated from the calculated three-time average value using the following formula (3) and regarded as an evaluation result.
In the present test, a specimen solution of the product 1, 3-butylene glycol of Comparative Example 1 that served as a reference and a specimen solution of the product 1, 3-butylene glycol of each of Examples 1 to 3 were each tested on the same day from the viewpoint of reproducibility.
Analysis device: Agilent 1260 InfinityII manufactured by Agilent Technologies, Inc. […]

SMILES	Color saturation (b*) (Basic coloration test)	Relative value of peptide reduction percentage [1]
CC(O)CCO (centres unmarked) [Comparative Example 1, 1,3-butylene glycol]	19.6	100
CC(O)CCO (centres unmarked) [Example 1, 1,3-butylene glycol]	2.8	45
CC(O)CCO (centres unmarked) [Example 2, 1,3-butylene glycol]	3.2	43
CC(O)CCO (centres unmarked) [Example 3, 1,3-butylene glycol]	0.7	22
